Measured values reported in patent publication US20240165174A1, “[…]-BASED COMPOSITION AND USES THEREOF FOR R[…]” (priority 2021, published 2024).

Tested on: primary human monocytes
Assay: Immunomodulation in human monocytes: cytokine/PGE2 release measured by ELISA after 24 h incubation
Type: cell-based
Details: up to the highest concentration studied (0.68 μg/mL and 0.59 μg/mL respectively)
Procedure: Monocyte cell cultures: Primary human monocytes were prepared from the buffy coat of healthy human blood donors using a standardized procedure.
Cells were seeded in 24-well plates at a density of 2200000 cells/well for ELISA measurements. Monocytes were incubated with test elements (5 different concentrations) for 24 h. LPS (10 ng/mL, Salmonella typhimurium SL1181) served as a positive control for cytokine release. After 24 h, supernatants were removed, centrifuged and studied for IL-1β, MCP-1, IL-6, TNF and IL-8 concentrations by ELISA using the manufacturer's protocol (n=6, 3 different donors).

Row | SMILES | effect on basal cytokine release in human monocytes
1 | Cc1ncc(CO)c(CO)c1O.Cl [vitamin B6] | Neither selenium, vitamin B6 nor vitamin D3 had any effect
2 | C=C1CC[C@H](O)C/C1=C/C=C1\CCC[C@]2(C)[C@@H]([C@H](C)CCCC(C)C)CC[C@@H]12 [vitamin D3, cholecalciferol] | Neither selenium, vitamin B6 nor vitamin D3 had any effect
3 | [Se] [selenium] | Neither selenium, vitamin B6 nor vitamin D3 had any effect
